Patent US20250042961A1, “P53 PEPTIDOMIMETIC MACROCYCLES” (MERCK SHARP & DOHME LLC, priority 2021, published 2025)
Read-outs that look alike come from different tables or passages of the source. *1 amine or outer side, *2 acyl side, *3 side chain or, on linkers, in order; H or OH if unused. Where a SMILES comes first, the peptide text is derived from it. Bridges are numbered along the chain shown (N, C = ends). [ ]: non-standard residue; d: D form. ξ: configuration not given here. ξαMeNle(6-ylidene) = CC(CCCC=[*:3])(N[*:1])C(=O)[*:2]; dPhe(4-CF3) = N[C@H](Cc1ccc(C(F)(F)F)cc1)C(=O)O; dTrp(6-F) = N[C@H](Cc1c[nH]c2cc(F)ccc12)C(=O)O

Legend:
MDM2 (1-125) = target: T1, MDM2 (1-125) (Homo sapiens, UniProt Q00987); assay: Competitive fluorescence anisotropy assay (FP Kd MDM2); type: binding
T1 construct: GST (N); His6 (N); TEV cleavage site ENLYFQG (N); made in house; host or cells: Escherichia coli BL21 (DE3) Rosetta T1R
Text: For use in the peptide binding assay, a human MDM2 1-125 sequence was cloned into a pNIC-GST vector. The TEV (tobacco etch virus) cleavage site was changed from ENLYFQS (SEQ ID NO: 13) to ENLYFQG (SEQ ID NO: 14) to give a fusion protein with the following sequence:
[P] is the protein concentration (MDM2), [L] is the labeled peptide concentration, r is the anisotropy measured, r0 is the anisotropy of the free peptide, rb is the anisotropy of the MDM2-FAM-labeled peptide complex, Kd is the dissociation constant, [L]t is the total FAM labeled peptide concentration, and [P]t is the total MDM2 concentration. […] These values were then used to determine apparent Kd values of the respective competing ligands in subsequent competition assays in fluorescence anisotropy experiments. MDM2 and MDM4 competition experiments were performed with their respective concentrations held constant at 250 nM and 75 nM, in the presence of 50 nM of FAM-labeled 12/1. The competing molecules were then titrated against the complex of the FAM-labeled peptide and protein. Apparent Kd values were determined by fitting the experimental data to the equations shown below:
[L]st and [L]t denote labeled ligand and total unlabeled ligand input concentrations, respectively. Kd2 is the dissociation constant of the interaction between the unlabeled ligand and the protein.
In all competition experiments, it is assumed that [P]t>[L]st, otherwise considerable amounts of free labeled ligand would always be present and would interfere with measurements. Kd1 is the apparent Kd for the labeled peptide used and has been experimentally determined as described in the previous paragraph. The FAM-labeled peptide was dissolved in dimethyl sulfoxide (DMSO) at 1 mM and diluted into experimental buffer. Readings were carried out with an Envision Multilabel Reader (PerkinElmer). Experiments were carried out in PBS (2.7 mM KCl, 137 mM NaCl, 10 mM Na2HPO4 and 2 mM KH2PO4 (pH 7.4)) and 0.1% Tween-20 buffer. All titrations were carried out in triplicate. Curve-fitting was carried out using Prism 4.0 (GraphPad®). […] Negative control titrations of the ligands under investigation were also carried out with the fluorescently labeled peptide (in the absence of MDM2) to ensure no interactions were occurring between the ligands and the FAM-labeled peptide. […] Measurements were taken a minimum of three times (biological replicates) and values are reported as geometric means of the replicates.

[1] = tested on: p53 responsive β-lactamase reporter in HCT116 cells; assay: p53 beta-lactamase reporter gene cellular functional assay; type: cell-based
Experimental: HCT116 cells were stably transfected with a p53 responsive β-lactamase reporter and expanded in McCoy's 5A Medium with 10% fetal bovine serum (FBS), Blasticidin, and Penicillin/Streptomycin and then transferred to 1.5 mL freezing vials and stored under liquid nitrogen in growth media containing 5% DMSO. […] The cells were then seeded into a 384-well plate at a density of 8000 cells per well. […] The final working concentration of DMSO was 0.5%. β-lactamase activity was detected using the ToxBLAzer Dual Screen (Invitrogen), as per the manufacturer's instructions. Measurements were made using the Envision multiplate reader (PerkinElmer). […] Measurements were taken a minimum of three times (biological replicates) and values are reported as geometric means of the replicates.

[2] = tested on: Jump-In T-REx CHO-K1 BLA cells; assay: Tetracycline beta-lactamase reporter gene cellular assay (counterscreen); type: cell-based
Experimental: This assay was based on Jump-In™ T-REx™ CHO-K1 BLA cells containing a stably integrated β-lactamase under the control of an inducible cytomegalovirus (CMV) promoter. Cells were maintained in Dulbecco's Minimal Eagle Medium (DMEM) with 10% fetal bovine serum (FBS), Blasticidin, and Penicillin/Streptomycin and then transferred to 1.5 mL freezing vials and stored under liquid nitrogen in growth media containing 5% DMSO. […] Cells were seeded into a 384-well plate at a density of 4000 cells per well. […] The final working concentration of DMSO was 0.5%. β-lactamase activity was detected using the ToxBLAzer Dual Screen (Invitrogen), as per the manufacturer's instructions. Measurements were carried out using the Envision multiplate reader (PerkinElmer). Counterscreen activity was defined as the amount of β-lactamase activity induced by tetracycline. Measurements were taken a minimum of three times (biological replicates) and values are reported as geometric means of the replicates.

[3] = Helicity stated in text (method not given); type: physicochemical; conditions: aqueous solution for compound 6
HCT116 cells = type: cell-based; conditions: serum condition not stated; read-out: LDH-release EC50
Experimental: HCT116 cells were stably transfected with a p53 responsive β-lactamase reporter and expanded in McCoy's 5A Medium with 10% fetal bovine serum (FBS), Blasticidin, and Penicillin/Streptomycin and then transferred to 1.5 mL freezing vials and stored under liquid nitrogen in growth media containing 5% DMSO. One day prior the assay, a vial of banked cells was recovered in a cell culture flask and incubated for 24 hours, followed by removal of cell growth media and replacement with Opti-MEM containing 2% FBS. The cells were then seeded into a 384-well plate at a density of 8000 cells per well. […] The final working concentration of DMSO was 0.5%. Lactate dehydrogenase release was detected using the CytoTox-ONE Homogenous Membrane Integrity Assay Kit (Promega), as per the manufacturer's instructions. Measurements were carried out using the Tecan plate reader. Maximum LDH release was defined as the amount of LDH released as induced by the lytic peptide (iDNA79) and used to normalize the results. Measurements were taken a minimum of three times (biological replicates) and values are reported as geometric means of the replicates.

HCT116 = type: cell-based; conditions: for EC50: 72 h; for HCT116 proliferation % Max: 72 hours, 10% serum
Text: (§1) To further establish the impact of the above modification in making cleaner “drug” like compounds, we profiled a set of compounds of the invention in cellular proliferation assays (Table 3).

p53 null Ca Ski = type: cell-based; conditions: 72 h
Text: as §1

[4] = read-out: p53 activity EC50 (0% FBS, 4 h), 0% FBS, 4 h
[5] = read-out: p53 activity EC50 (10% FBS, 16 h), 10% FBS, 16 h
[6] = read-out: Counter screen EC50 (0% FBS, 4 h), 0% FBS, 4 h
[7] = read-out: Counter screen EC50 (10% FBS, 16 h), 10% FBS, 16 h

T1 sequence (Q00987 with tags, fused parts or gaps): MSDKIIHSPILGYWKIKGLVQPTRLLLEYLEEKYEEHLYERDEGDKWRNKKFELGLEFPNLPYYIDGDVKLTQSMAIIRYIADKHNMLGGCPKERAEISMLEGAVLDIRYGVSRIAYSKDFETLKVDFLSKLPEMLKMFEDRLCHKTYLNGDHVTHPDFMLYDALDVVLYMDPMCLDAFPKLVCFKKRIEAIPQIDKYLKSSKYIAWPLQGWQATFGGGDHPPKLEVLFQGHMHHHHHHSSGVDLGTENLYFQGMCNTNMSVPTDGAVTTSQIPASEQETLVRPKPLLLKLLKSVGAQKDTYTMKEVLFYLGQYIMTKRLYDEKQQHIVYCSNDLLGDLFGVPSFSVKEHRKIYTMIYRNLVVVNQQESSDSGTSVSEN

Row | Kd (MDM2 (1-125)) [µM] | EC50 [1, 4] [µM] | EC50 [1, 5] [µM] | EC50 (HCT116 cells) [µM] | EC50 (HCT116) [µM] | EC50 (p53 null Ca Ski) [µM] | EC50 ([1]; read-out: p53 activity EC50 (10% FBS, 16 h), 10% FBS, 16 h, listed as compound 4) [µM] | Compound | EC50 [2, 6] [µM] | EC50 [2, 7] [µM] | helicity [3] | chromatographic logD (physchem) | solubility (Solubility (PBS, pH 7)) [µM] | improvement of p53 reporter gene functional cellular activity ([1]; 0% serum, versus compound 1) [fold] | EC50 ([2]; serum condition not stated, read-out: counterscreen EC50) [µM] | HCT116 proliferation % Max (HCT116) | overall improvement of cellular activity compared to parent peptide ([1]; 10% serum) [fold] | improvement of cell efficacy in HCT116 proliferation versus compound 2 (HCT116) | p53 null Ca Ski proliferation % Max (inhibition at maximum concentration) (p53 null Ca Ski) [%]
1 | 0.258 | 3.6 | > 50 | > 50 | 9.1 | 30.4 | – | CC(=O)N[C@@H](C(=O)N[C@H](C)C(=O)N[C@H](Cc1c[nH]c2cc(F)ccc12)C(=O)N[C@H](Cc1ccc(O)cc1)C(=O)N[C@H](C)C(=O)NC1(C)CCC/C=C\CCCC(C)(C(=O)N[C@H](CC(C)C)C(=O)N[C@H](CO)C(N)=O)NC(=O)[C@@H](CCC(N)=O)NC(=O)[C@@H](CCC(=O)O)NC(=O)[C@@H](Cc2ccc(C(F)(F)F)cc2)NC1=O)[C@H](C)O (stereo partly drawn) [Compound 2, Acetyl-^DPMI-δ-(6-10 olefinstaple) (D-K9D-Q, D-R12D-S)-NH2] (Ac-[dT][dA][dTrp(6-F)][dY][dA][ξαMeNle(6-ylidene)][dPhe(4-CF3)][dE][dQ][ξαMeNle(6-ylidene)][dL][dS]-NH2; staple (Z) 6-10) | > 50 | > 50 | – | – | – | 3 | > 50 | 80% | – | – | –
2 | 0.0032 | 0.61 | 0.28 | – | 1.48 | 31.1 | 0.3 | CC(=O)N[C@@H](C(=O)N[C@H](C)C(=O)N[C@H](Cc1c[nH]c2cc(F)ccc12)C(=O)N[C@H](Cc1ccc(O)cc1)C(=O)N[C@H](C)C(=O)NC1(C)CCC/C=C\CCCC(C)(C(=O)N[C@H](CC(C)C)C(=O)N[C@H](CO)C(=O)N[C@H](C)C(=O)N[C@H](C)C(=O)N[C@H](C)C(=O)N[C@H](C)C(=O)N[C@H](C)C(=O)N[C@H](C)C(N)=O)NC(=O)[C@@H](CCC(N)=O)NC(=O)[C@@H](CCC(=O)O)NC(=O)[C@@H](Cc2ccc(C(F)(F)F)cc2)NC1=O)[C@H](C)O (stereo partly drawn) [Compound 4, Acetyl-^DPMI-δ-(6-10 olefinstaple) (D-K9D-Q, D-R12D-S, 6x(D-A)polypeptidetail)-NH2] (Ac-[dT][dA][dTrp(6-F)][dY][dA][ξαMeNle(6-ylidene)][dPhe(4-CF3)][dE][dQ][ξαMeNle(6-ylidene)][dL][dS][dA][dA][dA][dA][dA][dA]-NH2; staple (Z) 6-10) | > 50 | > 50 | – | – | – | – | – | 84.5%^ | 100 | greater than 6 fold | 66

Row | Compound | Kd (MDM2 (1-125)) [µM] | EC50 [1, 4] [µM] | EC50 [1, 5] [µM] | EC50 (HCT116 cells) [µM] | EC50 (HCT116) [µM] | EC50 (p53 null Ca Ski) [µM] | EC50 ([1]; read-out: p53 activity EC50 (10% FBS, 16 h), 10% FBS, 16 h, listed as compound 4) [µM] | EC50 [2, 6] [µM] | EC50 [2, 7] [µM] | helicity [3] | chromatographic logD (physchem) | solubility (Solubility (PBS, pH 7)) [µM] | improvement of p53 reporter gene functional cellular activity ([1]; 0% serum, versus compound 1) [fold] | EC50 ([2]; serum condition not stated, read-out: counterscreen EC50) [µM] | HCT116 proliferation % Max (HCT116) | overall improvement of cellular activity compared to parent peptide ([1]; 10% serum) [fold] | improvement of cell efficacy in HCT116 proliferation versus compound 2 (HCT116) | p53 null Ca Ski proliferation % Max (inhibition at maximum concentration) (p53 null Ca Ski) [%]
3 | CC(=O)N[C@@H](C(=O)N[C@H](C)C(=O)N[C@H](Cc1c[nH]c2cc(F)ccc12)C(=O)N[C@H](Cc1ccc(O)cc1)C(=O)N[C@H](C)C(=O)NC1(C)CCC/C=C\CCCC(C)(C(=O)N[C@H](CC(C)C)C(=O)N[C@H](CO)C(=O)N[C@H](C)C(=O)N[C@H](Cc2ccccc2)C(=O)N[C@H](C)C(=O)N[C@H](C)C(=O)N[C@H](C)C(=O)N[C@H](C)C(N)=O)NC(=O)[C@@H](CCC(N)=O)NC(=O)[C@@H](CCC(=O)O)NC(=O)[C@@H](Cc2ccc(C(F)(F)F)cc2)NC1=O)[C@H](C)O.N (stereo partly drawn) [Compound 6] (Ac-[dT][dA][dTrp(6-F)][dY][dA][ξαMeNle(6-ylidene)][dPhe(4-CF3)][dE][dQ][ξαMeNle(6-ylidene)][dL][dS][dA][dF][dA][dA][dA][dA]-NH2; staple (Z) 6-10) | 0.03 | 9.65 | 1.75 | – | – | – | – | > 50 | > 50 | about 65% | 3.06 | 146 | – | – | – | – | – | –
